Assay results taken from PMC11679793, “Structure-Activity Relationship Study of Majusculamide D: Overcoming Metabolic Instability and Severe Toxicity with a Fluoro Analogue” (Marine Drugs, 2024).

Legend:
[1] = test system: PANC-1 and MIA PaCa-2 pancreatic cancer cells; assay: Wound healing assay; type: cell-based; details: PANC-1 and MIA PaCa-2, 24 h, concentration-dependent, vs control
Source text: Figure S225. Compound 1a inhibited the migration, invasion and proliferation of pancreatic cancer cells. (A) The results of wound healing assays to investigate the effects of 1a on the migration ability against PANC-1 and MIA PaCa-2 pancreatic cancer cells. (B) The results of transwell assays to investigate the effects of 1a on the invasion ability. (C) Effects of 1a on the clonogenic ability. (D) EdU assays of 1a. (E) Western blot assays of 1a on biomarkers. Data are presented as mean ± SD, n […]
Approximately 50% of pancreatic cancer patients show distant metastases at the time […]
disease. To evaluate the inhibitory effects of majusculamide D (1a) on the migratory capabilities of pancreatic cancer cells (PANC-1 and MIA PaCa-2), wound healing assays […]
were performed (Figure S1A). […]
concentration-dependent manner. […]
inhibited the migration of these pancreatic cancer cells. Further validation with transwell […]
concentration-dependent manner compared to the control group (Figure S1B). Since cell migration and invasion are correlated with cancer metastasis, compound 1a may delay the progression of tumors’ local spread and distant metastasis by inhibiting the migration and invasion ability of pancreatic cancer cells. […]
Images were taken at 0 hour and 24 hours after treatment to record and analyzed by measuring the area of the wound at each time point using ImageJ. […]

pancreatic cancer cells [2] = test system: pancreatic cancer cells; design: method as in PMID 30673235; details: cited from earlier work
[3] = Stability in mouse plasma assay; type: in vitro ADME; details: 1 μM, 37 °C, 2 h incubation
Procedure: Thaw plasma at room temperature and vortex for 3–5 s. Centrifuge at 3000 rpm at 10 °C for 10 min, and carefully transfer the supernatant to a new Eppendorf tube. Preincubate the plasma at 37 °C for 10 min. Prepare a series of test substances by adding 3 μL of the compound (100 μM) to 297 μL of plasma to achieve a final concentration of 1 μM, ensuring that the DMSO concentration in plasma is 1%. Propantheline bromide is used as a positive control. Incubate the mixture at 37 °C, and at specified time points (0, 1, 2, 4, and 24 h), take 50 μL of the plasma sample. To terminate the reaction, add 250 μL of acetonitrile (containing an internal standard), vortex thoroughly, and centrifuge at 16,000 rcf (4 °C) for 10 min. Collect 130 μL of the supernatant and dilute with 70 μL of pure water for LC-MS/MS analysis. The concentration of the test substances in plasma samples was determined using LC-MS/MS. The stability of the test substance in plasma was evaluated by measuring the remaining percentage of the compound in the plasma over time.

pancreatic cancer cells [4] = assay: Clone formation assay; type: cell-based; details: 48 h treatment then 10 days culture, concentration-dependent, vs control
Source text: dependent manner (Figure S1C). […]
growth and survival of pancreatic cancer cells. […]
Snail and TCF8/ZEB1 both […]
are transcription factors that can inhibit the expression of E-cadherin and promote the EMT process. Vimentin is a marker protein of mesenchymal cells, and its expression increases during EMT, further contribute to the process of metastasis by supporting the structural changes needed for cell migration and invasion.
We examined the effects of compound 1a on above key proteins involved in tumor progression pathways employing Western blot analysis in PANC-1 cells and MIA PaCa-2 […]
1a might inhibit cancer cell invasion and migration by enhancing cell-cell adhesion and barrier function. Conversely, the expression levels of β-catenin, Fibronectin, Snail, […]
Cells were resuspended at a concentration of 300 cells/mL, and 2 mL of the suspension was added to each well of a 6-well plate. After the cells adhered to the plate, the compound was added, and the cells were incubated for 48 hours, followed by replacement with fresh medium. The cells were then cultured for an additional 10 days. Subsequently, the cells were fixed with methanol and stained with crystal violet. The colonies were imaged under a microscope and quantified using ImageJ.
The BeyoClick™ EdU-488 Cell Proliferatio n Assay Kit (Beyotime Biotechnology, China) was used according to the manufacturer's instructions. […]

## CCCCC(C)CC(C)C(=O)N(C)C(Cc1ccc(OC)cc1)C(=O)NC(C(=O)N(C)C(C(=O)N1CC(O)CC1C(=O)N1C(=O)C=CC1C)C(C)C)C(C)OC(C)=O (stereo not shown) [Compound 1a, Majusculamide D]
[1]
  scratch wound healing rate (migration): significantly reduced the scratch wound healing rate
Pancreatic cancer cells [2]
  selectivity against pancreatic cancer cells in vitro: up to 4 × 10^3
[3]
  remaining percentage in mouse plasma after 2 h: 54.7%
Pancreatic cancer cells [4]
  colony formation: remarkably reduced colony formation
